Columns and labels:
Type in all cases: in vivo, rat
[1] = Brain unesterified FA concentrations (GC-MS; EPA by LC-MS/MS) in vehicle- or MEP-treated rats; settings: MEP vs vehicle
Method: At 15 weeks of age, 16 rats were randomized to receive vehicle or 10 mg/kg MEP via tail vein catheter as described above. […] Brain hemispheres were homogenized in ethanol to yield a concentration of 100 mg tissue/ml. The unesterified FAs from 100 mg of brain tissue were isolated. The unesterified FA bands were collected and extracted twice from silica by hexane:isopropanol (3:2 by volume) with 5.5% water. […] The mixtures were shaken for 15 min and dried down with nitrogen gas. FA-PFB esters (FAPEs) were reconstituted in 100 μl hexane for GC-MS analysis as described below. For measurements of unesterified EPA, brain samples were homogenized in ethanol on ice. An aliquot of 100 mg tissue was spiked with ARA-d8 (20 ng; Cayman Chemical, Ann Arbor, MI) and dried under nitrogen gas in reduced light conditions. Residues were dissolved in ethanol, acidified to pH 4 with 1 N HCl, and extracted three times with ethyl acetate. After washing to neutrality with water, the ethyl acetate fraction was dried under nitrogen and transferred to siliconized minivials for liquid chromatography-tandem mass spectrometry (LC-MS/MS) analysis as described below. Brain unesterified EPA was detected using an Agilent HPLC 1200 equipped with a Zorbax SB-Phenyl column. HPLC solvent contained 4 μl/l propionic acid. The initial conditions of elution were set at 400 μl/min gradient system consisting of (A) water and (B) acetonitrile. […] Mass spectrometry analyses were carried out on API5500 triple quadruple mass spectrometer (AB SCIEX, Concord, ON, Canada). The QTRAP analyses were conducted in electrospray ionization negative ion mode. The turbospray temperature was set to 500°C and the ion spray voltage to 4,500 V. The collision energy, declustering potential, and collision cell exit potential were optimized and were set to 15, 50, and 11, respectively. Concentration was quantified by comparing the deuterium-to-protium ratio of brain unesterified EPA with standard lines generated from authentic standards. Authentic standards in appropriate dilutions (0.002-2 ng) were prepared and analyzed simultaneously with brain samples. The lower limit of quantification (LLQ) was 0.002 ng (6.3 fmol of […] identified with an Agilent 7890A gas chromatograph (Agilent Technologies) equipped with a SP-2380 (Supelco) fused silica column (Agilent Technologies; 30 m × 0.25 mm I.D. × 0.2 μm film thickness) and an Agilent 5975C quadruple mass spectrometry detector (Agilent Technologies). The sample was injected in split mode (10:1). The injection port temperature was set to 240°C and the ionization mode was set to negative chemical ionization using methane. FAPEs were eluted using a temperature program initially set at 150°C for 1 min, increase at 12°C/min to 270°C, and then at 40°C/min to 275°C for 3 min. […]

[2] = Radioactivity in brain lipid fractions after 5 min intravenous 14C-tracer infusion (TLC, LSC); settings: MEP vs vehicle
Method: (§1) Twenty-four hours postsurgery, a second catheter (iv catheter 24 gauge/0.75 inch, Angiocath™; Becton Dickinson) was implanted into the tail vein where rats received either vehicle or 10 mg/kg of MEP. Ten minutes post injection of vehicle or MEP, the tail vein catheter was connected to a syringe containing radiolabeled ^14C-palmitate (n = 8), ^14C-DHA (n = 6), or ^14C-EPA (n = 7) attached to a computer-controlled variable speed pump (PHD 22/2000; Harvard Apparatus, Holliston, MA). […] Each rat received a dose of 76 μCi ^14C-palmitate, 76 μCi ^14C-DHA, or 78 μCi ^14C-EPA. […] The radiotracer infusions continued until rats were euthanized. The brain was excised and cut sagittally. Both hemispheres were stored at −80°C for radioactive and biochemical analyses. Plasma was isolated from whole blood via microcentrifugation at 6,200 rpm (2,000 g) for 5 min and stored at −80°C. Total lipids from one brain hemisphere and from plasma were extracted by the method of Folch, Lees, and Sloane Stanley ([39]). Isolation of various neutral lipid and phospholipid classes from the total lipid extract was previously described by Chen, Liu, and Bazinet ([6]). FA methyl esters and radioactive acyl-CoA analysis were previously described by Chen, Liu, and Bazinet ([6]).

[3] = Brain total phospholipid and phospholipid class FA concentrations (GC-FID); settings: MEP vs vehicle
Source text: Total lipids from one brain hemisphere and from plasma were extracted by the method of Folch, Lees, and Sloane Stanley ([39]). Isolation of various neutral lipid and phospholipid classes from the total lipid extract was previously described by Chen, Liu, and Bazinet ([6]).
Brain FA concentrations from total and phospholipid classes were quantified as described by Chen, Liu, and Bazinet ([6]).

[4] = tested on: mitochondrial FA β-oxidation; test: Radioactivity in brain aqueous fraction (marker of β-oxidation) after 5 min intravenous 14C-tracer infusion; settings: MEP 10 mg/kg iv 10 min before infusion
Method: as §1, with “([6]).” for “([6]). FA methyl esters and radioactive acyl-CoA analysis were previously described by Chen, Liu, and Bazinet ([6]).”

**Q.** With `CCCCCCCCCCCCCCC1(C(=O)OC)CO1` (centres unmarked) [MEP, methyl-2-tetradecylglycidate, reference compound] as the molecule, how does the “fold increase in brain unesterified EPA” value [1] read?
**A.** 1.3 fold

**Q.** What about the “fold increase in brain unesterified linoleate (18:2n-6)” value [1] of the same molecule?
**A.** 1.4 fold

**Q.** What about the “fold increase in brain unesterified palmitate” value [1] of the same molecule?
**A.** 2.5 fold

**Q.** And the “fold increase in brain unesterified α-linolenate (18:3n-3)” value [1]?
**A.** 1.5 fold

**Q.** And the “increase in radioactivity of PtdSer” value ([2]; 14C-EPA-infused rats)?
**A.** 49%

**Q.** What about the “increase in radioactivity of PtdIns” value ([2]; 14C-palmitate-infused rats) of the same molecule?
**A.** 65%

**Q.** And the “reduction in ARA from PtdSer” value [3]?
**A.** 8%

**Q.** And the “reduction in linoleate from EtnGpl” value [3]?
**A.** 9%

**Q.** What about the “reduction of radioactivity in brain aqueous fraction” value ([4]; 14C-DHA-infused rats) of the same molecule?
**A.** 23%

**Q.** What about the “reduction of radioactivity in brain aqueous fraction” value ([4]; 14C-EPA-infused rats) of the same molecule?
**A.** 54%

**Q.** What about the “reduction of radioactivity in brain aqueous fraction” value ([4]; 14C-palmitate-infused rats) of the same molecule?
**A.** 74%

From article PMC3735939, “The low levels of eicosapentaenoic acid in rat brain phospholipids are maintained via multiple redundant mechanisms” (Journal of Lipid Research, 2013)
